Assay results published in PMC12439480, “Dimeric CCK2R radiotheranostic tracers synergize with mTOR inhibition for enhanced tumor therapy” (Theranostics, 2025).
Like-named read-outs stand apart in the source and are kept apart here. Numbered stars: 1 amine (or outer) side, 2 acyl side, 3 side chain; on linkers, the order of the positions; unused ones are H or OH. Square brackets hold non-standard residues; d marks the D form. Side chains are listed from the residue outwards. Peptide text beside a SMILES is read from it. * marks the point of attachment. DOTA = O=C(O)CN1CCN(CC(=O)O)CCN(CC(=O)*)CCN(CC(=O)O)CC1; d(γGlu) = O=C(O)[C@@H](CCC(=O)[*:2])N[*:1]; 1Nal = N[C@@H](Cc1cccc2ccccc12)C(=O)O; NMeNle = CCCC[C@H](NC)C(=O)O; PEG4 = NCCOCCOCCOCCOCCC(=O)O

Test: Ex vivo biodistribution of 177Lu-labeled compound
Parameters: species or system BALB/c nude mice
Conditions: mouse, in vivo; for tissue to tissue ratio at 24 h / tissue to tissue ratio at 48 h / tissue to tissue ratio at 72 h / tissue to tissue ratio at 96 h / tissue to tissue ratio at 1 h / tissue to tissue ratio at 4 h: female, BALB/c nude, iv, total radioactivity
Procedure: To evaluate the biodistribution of [^177Lu]Lu-DOTA-CCK2R-dimer, AR42J tumor-bearing mice received intravenous (i.v.) injections of 3.7 MBq (≈ 120 pmol) of [^177Lu]Lu-DOTA-CCK2R-dimer (dissolved in 200 μL of saline; n = 3/group), and Mice were sacrificed at 1, 4, 24, 48, 72, and 96 h post-injection. The tissues of interest were excised, weighed, and analyzed for radioactivity using a γ-counter.
All animal studies were approved by the Ethics Committee of Fudan University Shanghai Cancer Center (No. FUSCC-IACUC- S2023- 0003). Five-week-old female BALB/c nude mice were purchased from Shanghai SLAC Laboratory Animal
Company. To establish cell-derived xenograft (CDX) models, 1 × 10⁶ AR42J cells (100 μL) were subcutaneously inoculated into the right shoulder of each mouse. […]
Radioactivity levels were measured using a gamma counter, with decay correction applied based on the injection time. The percentage of injected dose per gram of tissue (%ID/g) was calculated for each time point. […]

[1] = 3.7 MBq, Tumor-to-Bladder ratio (T/B)
[2] = 3.7 MBq, Tumor-to-Blood ratio (T/B)
[3] = 3.7 MBq, Tumor-to-Bone ratio (T/B)
[4] = 3.7 MBq, Tumor-to-Brain ratio (T/B)
[5] = 3.7 MBq, Tumor-to-Heart ratio (T/B)
[6] = 3.7 MBq, Tumor-to-Liver ratio (T/B)
[7] = 3.7 MBq, Tumor-to-Muscle ratio (T/M)
[8] = 3.7 MBq, Tumor-to-Stomach ratio (T/B)
[9] = Tumor-to-Large intestine ratio (T/B)
[10] = Tumor-to-Small intestine ratio (T/B)

## CCCC[C@@H](C(=O)N[C@@H](CC(=O)O)C(=O)N[C@@H](Cc1cccc2ccccc12)C(N)=O)N(C)C(=O)[C@H](Cc1c[nH]c2ccccc12)NC(=O)CCOCCOCCOCCOCCNC(=O)CC[C@@H](NC(=O)CC[C@H](NC(=O)CN1CCN(CC(=O)O)CCN(CC(=O)O)CCN(CC(=O)O)CC1)C(=O)N[C@H](CCC(=O)NCCOCCOCCOCCOCCC(=O)N[C@@H](Cc1c[nH]c2ccccc12)C(=O)N(C)[C@@H](CCCC)C(=O)N[C@@H](CC(=O)O)C(=O)N[C@@H](Cc1cccc2ccccc12)C(N)=O)C(=O)O)C(=O)O [[177Lu]Lu-DOTA-CCK2R-dimer, metal not drawn] ({DOTA}-E([d(γGlu)-PEG4-Trp-NMeNle-Asp-1Nal-NH2])[d(γGlu)][PEG4]W[NMeNle]D[1Nal]-NH2)
[1]
  tissue to tissue ratio at 24 h: 35.4 ± 6.48
  tissue to tissue ratio at 48 h: 194 ± 91
  tissue to tissue ratio at 72 h: 44.7 ± 13.1
  tissue to tissue ratio at 96 h: 13.5 ± 4.12
[2]
  tissue to tissue ratio at 1 h: 2.95 ± 1.5
  tissue to tissue ratio at 4 h: 13.3 ± 5.68
  tissue to tissue ratio at 24 h: 141 ± 51.3
  tissue to tissue ratio at 48 h: 186 ± 14.3
  tissue to tissue ratio at 72 h: 768 ± 140
  tissue to tissue ratio at 96 h: 226 ± 40.9
[3]
  tissue to tissue ratio at 1 h: 35.1 ± 13.6
  tissue to tissue ratio at 4 h: 53.2 ± 32.6
  tissue to tissue ratio at 24 h: 165 ± 45
  tissue to tissue ratio at 48 h: 1070 ± 247
  tissue to tissue ratio at 72 h: 117 ± 40.1
  tissue to tissue ratio at 96 h: 46 ± 9.49
[4]
  tissue to tissue ratio at 1 h: 141 ± 50
  tissue to tissue ratio at 4 h: 470 ± 81.1
  tissue to tissue ratio at 24 h: 6080 ± 100
  tissue to tissue ratio at 48 h: 1710 ± 151
  tissue to tissue ratio at 72 h: 746 ± 85.1
  tissue to tissue ratio at 96 h: 189 ± 50.1
[5]
  tissue to tissue ratio at 1 h: 15.3 ± 5.59
  tissue to tissue ratio at 96 h: 105 ± 5.19
[6]
  tissue to tissue ratio at 1 h: 5.19 ± 2.8
  tissue to tissue ratio at 4 h: 4.37 ± 0.9
  tissue to tissue ratio at 24 h: 10 ± 0.99
  tissue to tissue ratio at 48 h: 7.78 ± 1.96
[7]
  tissue to tissue ratio at 1 h: 53.3 ± 18.2
  tissue to tissue ratio at 4 h: 246 ± 180
  tissue to tissue ratio at 24 h: 417 ± 210
  tissue to tissue ratio at 48 h: 531 ± 153
  tissue to tissue ratio at 72 h: 348 ± 238
  tissue to tissue ratio at 96 h: 90.8 ± 32.8
[8]
  tissue to tissue ratio at 1 h: 4.83 ± 1.46
  tissue to tissue ratio at 96 h: 13.4 ± 6.42
3.7 MBq, 1 h p.i., read-out: Tumor-to-Kidney ratio (T/B)
  tissue to tissue ratio at 1 h: 2.22 ± 1.01
3.7 MBq, 48 h p.i., read-out: Tumor-to-Kidney ratio (T/B)
  tissue to tissue ratio at 48 h: 4.16 ± 3.43
Tumor-to-Bladder ratio (T/B)
  tissue to tissue ratio at 1 h: 24.8 ± 11
  tissue to tissue ratio at 4 h: 40.4 ± 12.1
Tumor-to-Heart ratio (T/B)
  tissue to tissue ratio at 4 h: 29.6 ± 12.8
  tissue to tissue ratio at 24 h: 134 ± 59.9
  tissue to tissue ratio at 48 h: 406 ± 29.2
  tissue to tissue ratio at 72 h: 80.5 ± 26.4
[9]
  tissue to tissue ratio at 1 h: 17.1 ± 5.58
  tissue to tissue ratio at 4 h: 24.4 ± 5.51
  tissue to tissue ratio at 24 h: 90.7 ± 23.4
  tissue to tissue ratio at 48 h: 73.2 ± 14.5
  tissue to tissue ratio at 72 h: 98.9 ± 74.4
  tissue to tissue ratio at 96 h: 26.3 ± 11
Tumor-to-Liver ratio (T/B)
  tissue to tissue ratio at 72 h: 5.53 ± 1.05
  tissue to tissue ratio at 96 h: 2.7 ± 0.63
Tumor-to-Lung ratio (T/B)
  tissue to tissue ratio at 1 h: 7.93 ± 3.29
  tissue to tissue ratio at 4 h: 15.9 ± 6.64
  tissue to tissue ratio at 24 h: 331 ± 35
  tissue to tissue ratio at 48 h: 900 ± 88
  tissue to tissue ratio at 72 h: 299 ± 66.5
  tissue to tissue ratio at 96 h: 61.2 ± 12.8
[10]
  tissue to tissue ratio at 1 h: 14 ± 5.39
  tissue to tissue ratio at 4 h: 28.8 ± 10.3
  tissue to tissue ratio at 24 h: 229 ± 10
  tissue to tissue ratio at 48 h: 112 ± 61
  tissue to tissue ratio at 72 h: 187 ± 27.7
  tissue to tissue ratio at 96 h: 39.6 ± 12.2
Tumor-to-Spleen ratio (T/B)
  tissue to tissue ratio at 1 h: 8.21 ± 4.18
  tissue to tissue ratio at 4 h: 6.59 ± 0.75
  tissue to tissue ratio at 24 h: 55 ± 21.1
  tissue to tissue ratio at 48 h: 124 ± 50
  tissue to tissue ratio at 72 h: 51.8 ± 19.5
  tissue to tissue ratio at 96 h: 9.63 ± 3.59
Tumor-to-Stomach ratio (T/B)
  tissue to tissue ratio at 4 h: 5.05 ± 1.72
  tissue to tissue ratio at 24 h: 5.94 ± 1.92
  tissue to tissue ratio at 48 h: 4.15 ± 0.31
  tissue to tissue ratio at 72 h: 8.41 ± 1.18
4 h p.i., read-out: Tumor-to-Kidney ratio (T/B)
  tissue to tissue ratio at 4 h: 2.19 ± 0.23
24 h p.i., read-out: Tumor-to-Kidney ratio (T/B)
  tissue to tissue ratio at 24 h: 1.84 ± 0.56
72 h p.i., read-out: Tumor-to-Kidney ratio (T/B)
  tissue to tissue ratio at 72 h: 1.65 ± 0.05
96 h p.i., read-out: Tumor-to-Kidney ratio (T/B)
  tissue to tissue ratio at 96 h: 1.37 ± 0.84
Bladder uptake
  tissue uptake at 1 h: 0.84 ± 0.31 %ID/g
  tissue uptake at 4 h: 0.4 ± 0.13 %ID/g
  tissue uptake at 24 h: 0.18 ± 0.04 %ID/g
